Values of other authors as cited in US20070025918A1, “Magnetic resonance imaging (MRI) agents: water soluble carbon-13 enriched fullerene and carbon nanotubes for use with dynamic nuclear polarization” (General Electric Company, priority 2005, published 2007).

What was measured:
[1] = THF and acetone

For C60F60, the solubility in water is given as “virtually insoluble” and the “solubility in organic solvents” value [1] is given as “soluble”.
